Assay results from US9206132B2, “Use of a novel aminopyridine derivative to prevent or treat cancer” (Medicinal Bioconvergence Research Center, priority 2012, dated 2015).

Experiments:
[1] = tested on: AIMP2-DX2; test: AIMP2-DX2 luciferase assay in pGL2-DX2 transfected H460 lung cancer cells; conditions: H460 transfected with pGL-DX-2, cultured 24 hours, 4 hours treatment, lower = more inhibition, N.C (DMSO) 8627
Procedure: (§1) After 24 hours in culture, transfected lung cancer cells were treated with the compounds of the library. 4 hours later, luciferase activity was measured with a luminometer using a luciferase assay kit according to a manufacturer protocol (Promega, US).
(§2) Lung cancer cell lines A549 and H460 were transfected with pGL-DX-2, cultured for 24 hours, and treated with the newly synthesized compounds. After further culturing for 4 hours, luciferase activity was measured.

[2] = tested on: AIMP2-DX2; test: AIMP2-DX2 luciferase assay in pGL-DX-2 transfected A549 lung cancer cells; conditions: A549 transfected with pGL-DX-2, cultured 24 hours, 4 hours treatment, lower = more inhibition, N.C (DMSO) 20089
Procedure: as §1, §2

SMILES | AIMP2-DX2 Activity in H460 cells [1] | AIMP2-DX2 Activity in A549 cells [2]
CCOC(=O)CC(=O)Nc1cccc(C)n1 [No. 2, ethyl 3-[(6-methylpyridin-2-yl)amino]-3-oxopropanoate] | 7740 | 8070
CCOC(=O)CC(=O)Nc1ccc(Cl)cn1 [No. 8, ethyl 3-[(5-chloropyridin-2-yl)amino]-3-oxopropanoate] | 6348 | 8045
CCOC(=O)C(C)C(=O)Nc1ccc(Cl)cn1 (stereo not shown) [No. 1, ethyl 3-[(5-chloropyridin-2-yl)amino]-2-methyl-3-oxopropanoate] | 7668 | 5295
CCOC(=O)C(C)C(=O)Nc1cnc2ccccc2c1 (stereo not shown) [No. 6, ethyl 2-methyl-3-oxo-3-(quinolin-3-ylamino)propanoate] | 5083 | 6011
CCOC(=O)CC(=O)Nc1nc(C)ccc1C [No. 4, ethyl 3-[(3,6-dimethylpyridin-2-yl)amino]-3-oxopropanoate] | 4914 | 18252
CCOC(=O)CC(=O)Nc1cc(O)ccn1 [No. 5, ethyl 3-[(4-hydroxypyridin-2-yl)amino]-3-oxopropanoate] | 4984 | 5721
CCOC(=O)C(C)C(=O)Nc1cccc(C)n1 (stereo not shown) [No. 7, ethyl 2-methyl-3-[(6-methylpyridin-2-yl)amino]-3-oxopropanoate] | 6082 | 6568
CCOC(=O)CC(=O)Nc1cnc2ccccc2c1 [No. 3, ethyl 3-oxo-3-(quinolin-3-ylamino)propanoate] | 5447 | 17967
